The source of these data is patent US20260335293A1, “USE OF NOVEL COMPOUND FOR TREATING INTRACTABLE DISEASES” (YJ CERAPEUTICS INC., priority 2023, published 2026).

The subject of assay [1] is MPO-positive neutrophils. The assay is described as follows: Introduction of neutrophils (MPO) into bladder of SCI model, immunofluorescence. It counts as in vivo, Sprague-Dawley rats. As to conditions: day 1 after SCI.
Assay [2] relates to inflammatory factors (IL-6, iNOS, COX-2, IL-1β, TNF-α, MIP-1α, MIP-1β, MIP-2α, Gro-α, and MCP-1). In words: Inflammatory factor expression in spinal cord of SNI model, RT-PCR and Western blot. It counts as in vivo, Sprague-Dawley rats. As to conditions: ipsilateral L4-5 spinal cord. The method, then: To be used as a peripheral nerve injury animal model, a sciatic nerve injury (SNI) model was prepared (FIG. 1C). Specifically, 200 to 220 g of male adult Sprague-Dawley rats were anesthetized by intraperitoneal injection of chloral hydrate (500 mg/kg), and then three terminal branches (tibial, common peroneal, and sural nerves) of the right sciatic nerve were approached, and the tibia nerve and the peroneal nerve were tightly ligated with 4-0 silk, and neurectomy was performed at a distal 3 mm position of the ligation site. At this time, a Sham group was a group that exposed only the sciatic nerve without damage.
It was known that when neuropathic pain occurred, the activation of microglia and astrocytes expressed inflammatory factors including cytokines and chemokines to cause excessive excitation of surrounding neurons. Therefore, in order to confirm changes in inflammatory factor expression by YJ102 administration in the SNI animal model 4 weeks after nerve injury, RNA and protein were extracted from L4-5 spinal cord tissue and RT-PCR and Western blot analysis were performed. Specifically, for RT-PCR analysis, RNA was isolated from spinal cord tissue sections using a TRIZOL Reagent (Invitrogen) according to a manual, and 20 μl of the total mixture was prepared by using 1 μg of total RNA, and cDNA was synthesized using MMLV reverse transcriptase (Invitrogen). […]
In general terms: In western blotting, separated proteins are transferred to a membrane and probed.

For assay [3], the system named is astrocytes (GFAP). In words: Astrocyte activation in spinal cord of SNI model, GFAP immunohistochemistry and Western blot. The class given is in vivo, Sprague-Dawley rats. The note with it: L4-5 spinal cord.
Assay [4] relates to inflammatory factors in Raw 264.7 cell line. The assay is described as follows: Inflammatory factor mRNA in LPS-stimulated Raw 264.7 macrophage cell line, RT-PCR. It counts as cell-based. As to conditions: LPS-treated Raw 264.7, RT-PCR. The method, then: In order to determine whether YJ102 affected the production of proNGF as a ligand of p75, the expression of proNGF in the bladder was confirmed by RT-PCR, Western blot analysis, and immunofluorescence staining. In addition, for further verification, a macrophage cell line Raw 264.7 (Korea Cell Line Bank, Seoul, Korea) was stimulated with 1 μg/ml of LPS, and the effect of YJ102 on the production of proNGF was investigated. At this time, YJ102 was dissolved in DMSO and treated 30 minutes before LPS treatment.
To confirm the effect of YJ102 on the expression of inflammatory factors in the bladder after spinal cord injury, the expression of inflammatory cytokines and chemokines, COX-2, iNOS, IL-6, IL-1β, MIP-1α, MIP-1β, MIP-2a, and Gro-α in bladder tissue was confirmed by RT-PCR analysis and Western blot analysis using the primers in Table 2 above. In addition, even in the Raw 264.7 cell line, the expression was verified by RT-PCR analysis.

The test system of assay [5] is caspase-3. In words: Caspase-3 activation (cleaved caspase-3) in urothelium of SCI model, Western blot. It counts as in vivo, Sprague-Dawley rats. As to conditions: day 3 after SCI.
Assay [6] has as its system Occludin. In words: Tight junction protein Occludin in bladder of SCI model, Western blot and immunofluorescence. It counts as in vivo, Sprague-Dawley rats.
For assay [7], the system named is urinary disturbances caused by spinal cord injury (bladder function). The assay is described as follows: Urinary function (residual urine volume, UBFS, bladder size and weight) in SCI model. The class given is in vivo, Sprague-Dawley rats. As to conditions: 5 mg/kg i.p. The procedure:
To be used as a central nerve injury animal model, a traumatic spinal cord injury (SCI) model was prepared (FIG. 1A). Specifically, 230 to 250 g of male adult Sprague-Dawley rats were anesthetized by intraperitoneal injection of chloral hydrate (500 mg/kg), and then the back and neck regions were shaved, and the spinal cord under the back and neck regions was exposed without damaging the dura mater, and a laminectomy was performed at T9 to T10 levels. To stabilize the spine, the spinous processes of T8 and T11 were fixed, and the spine was damaged by free-falling a 10 g weight from a height of 25 mm using an NYU impactor onto the back surface of the exposed spinal cord and then the rats were left in a temperature and humidity-controlled chamber overnight while covering the muscles and skin. After surgery, the rats were subcutaneously injected with a supplement solution (5 ml, lactated ringer) and injected with antibiotics (gentamicin, 5 mg/kg, intramuscular injection) once daily for 5 days. The body weight, remaining food, and the weight of water were confirmed and recorded for all animals, and the bladder was emptied twice daily by passive bladder massage until reflex micturition was established. At this time, a Sham group was a group that was subjected to only laminectomy without damage.
In order to confirm the effect of YJ102 (Chemical Formula 1), a compound of the present disclosure, on urinary disturbances caused by spinal cord injury, immediately after preparing the traumatic spinal cord injury (SCI) model (FIG. 1A) prepared in Example 1 above, YJ102 was dissolved in DMSO, methyl pyrrolidinone, and water (1:1.5:1) and administered intraperitoneally at 5 mg/kg, and then intraperitoneally administered at 24-hour intervals for 7 days from the next day. Thereafter, the effect of improving bladder functions was analyzed through a residual urine volume test and a urinary bladder function score (UBFS). […] Specifically, in order to determine the amount of urine remaining in the bladder after spinal cord injury, bladder extrusion was performed twice a day by applying pressure to the central bottom portion of the lower abdomen using the index and middle fingers to empty the bladder, and the expelled urine was collected in a catheter and its volume was recorded. In addition, the UBFS was assessed daily using a 0-4 point UBFS (0=total loss of function (manual bladder extrusion 3 times a day, bloody urine), 1=partial restoration of UBF (manual extrusion 2 times a day, bloody urine), 2=partial restoration of UBF (partial/complete release of sphincter spasm, manual extrusion once a day, persistently bloody urine), 3=high restoration (manual extrusion once a day, no bloody urine), and 4=normal UBF) as in the reference (Zeng et al., Spinal Cord (2017) 55:834-839).

For the compound `CCc1ccc(N(C(=O)COC)c2nc3cc(Cl)ccc3o2)cc1` [YJ102], the “introduction of MPO-positive neutrophils into the bladder” value in assay [1] is “significantly inhibited”. In assay [2] (RT-PCR), the “expression of inflammatory factors” value is “significantly reduced”. Besides, the “expression of inflammatory factors” value in assay [2] (Western blot) is reported as “significantly reduced”. For the same compound, in assay [3] (Western blot), the GFAP expression entry is listed as “significantly decreased”. Besides, the GFAP expression intensity result in assay [3] (immunohistochemistry) is “significantly decreased”. Moreover, in assay [4], the “mRNA level of COX-2” value is given as “significantly reduced”, the “mRNA level of IL-1β” value is “significantly reduced”, the “mRNA level of IL-6” value is listed as “significantly reduced” and the “mRNA level of TNF-α” value is “significantly reduced”. The “mRNA level of iNOS” value in assay [4] is reported as “significantly reduced”. The caspase-3 activation entry in assay [5] is “inhibited”. The “reduction in amount of Occludin” value in assay [6] (SCI day 1, Western blot) is given as “significantly inhibited”. The “reduction in Occludin in the urothelium” value in assay [6] (after SCI, immunofluorescence) was “inhibited”. Moreover, in assay [7], the bladder size result is listed as “significantly reduced” and the bladder weight result is given as “significantly reduced”. Besides, the residual urine volume entry in assay [7] (vs Veh, from the first day of administration) is listed as “significantly reduced”. For the same compound, in assay [7] (vs Vehicle, day 3 and day 7 after SCI), the “bladder function restoration analysis using the UBFS (printed as residual urine volume)” value was “significantly increased”.
